# Like-named read-outs stand apart in the source and are kept apart here.
# Experiments:
# [1] = test system: DLD-1; experiment: SRB cytotoxicity assay, DLD-1; type: cell-based; conditions: Homo sapiens, read-out: IC50 Cytotoxicity DLD-1
# From the text: (§1) The cell lines MDA-MB-231 (No. TCHu227), A549 (No. TCHu150), and HepG2 (No. TCHu72) were obtained from the Cell Bank/Stem Cell Bank, Chinese Academy of Sciences (Shanghai, China). The cell lines DLD-1 (No. CC0507) and HCT116 (No. CC0506) were obtained from the Cell Bank of Cellcook Biotech Co., Ltd. (Guangzhou, China). Cell line HL-7702 (No. BNCC338358) was obtained from Bena Culture Collection (Zhengzhou, China).
# (§2) The human cancer cell lines MDA-MB-231 (breast adenocarcinoma), DLD-1 (colorectal adenocarcinoma), A549 (lung epithelial carcinoma), HCT116 (colorectal adenocarcinoma), HepG2 (hepatocellular carcinoma), and human hepatocyte HL-7702 were cultured in Dulbecco’s modified eagle medium (DMEM, Biological Industries, Beit Haemek, Israel) containing 10% (v/v) fetal bovine serum (FBS, Biological Industries, Beit Haemek, Israel) at 37 °C in a humidified incubator (ThermoFisher, Carlsbad, CA, USA) with a 5% CO2 atmosphere.
# [2] = test system: HCT116; experiment: SRB cytotoxicity assay, HCT116; type: cell-based; conditions: Homo sapiens, read-out: IC50 Cytotoxicity HCT116
# From the text: as §1, §2
# [3] = test system: A549; experiment: SRB cytotoxicity assay, A549; type: cell-based; conditions: Homo sapiens, read-out: IC50 Cytotoxicity A549
# From the text: as §1, §2
# [4] = test system: MDA-MB-231; experiment: SRB cytotoxicity assay, MDA-MB-231; type: cell-based; conditions: Homo sapiens, read-out: IC50 Cytotoxicity MDA-MB-231
# From the text: as §1, §2
# [5] = biological target: T1, DNA Topo I (Homo sapiens, UniProt P11387); experiment: Topo I inhibition assay (DNA relaxation assay); type: biochemical; conditions: for IC50: DNA relaxation assay, pBR322, mean ± SD; for inhibition at 400 µM: read-out: percentage inhibition on Topo I activity
# T1 construct: purchased ThermoFisher, Waltham, MA, USA
# T1 sequence (P11387 1-765): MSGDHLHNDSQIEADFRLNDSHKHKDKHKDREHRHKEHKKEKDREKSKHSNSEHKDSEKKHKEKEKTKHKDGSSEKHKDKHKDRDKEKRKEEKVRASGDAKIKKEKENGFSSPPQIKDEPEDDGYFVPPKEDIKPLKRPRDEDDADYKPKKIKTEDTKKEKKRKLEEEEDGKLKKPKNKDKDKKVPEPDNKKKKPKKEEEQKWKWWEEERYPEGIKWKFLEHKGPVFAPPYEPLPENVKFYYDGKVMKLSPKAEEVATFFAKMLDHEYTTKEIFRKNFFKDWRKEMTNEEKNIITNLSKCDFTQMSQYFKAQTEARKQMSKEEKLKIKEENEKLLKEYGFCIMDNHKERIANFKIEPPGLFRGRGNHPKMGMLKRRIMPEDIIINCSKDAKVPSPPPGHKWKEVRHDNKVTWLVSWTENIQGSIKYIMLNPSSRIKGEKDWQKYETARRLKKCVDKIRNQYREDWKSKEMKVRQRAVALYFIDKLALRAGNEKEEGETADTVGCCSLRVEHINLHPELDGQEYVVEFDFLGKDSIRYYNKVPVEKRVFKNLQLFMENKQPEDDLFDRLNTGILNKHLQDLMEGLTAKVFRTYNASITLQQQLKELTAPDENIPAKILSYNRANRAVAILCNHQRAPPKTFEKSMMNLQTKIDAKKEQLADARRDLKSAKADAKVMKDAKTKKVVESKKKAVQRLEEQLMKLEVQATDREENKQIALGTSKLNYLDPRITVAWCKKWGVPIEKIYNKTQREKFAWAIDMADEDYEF
# Method: The DNA relaxation assay was adopted to investigate the compounds’ inhibitory activities on Topo I. Different concentrations of the compounds, dissolved and diluted in DMSO, were added into the relaxation buffer (50 mM Tris, pH 7.5, 50 mM KCl, 10 mM MgCl2, 0.1 mM EDTA, 0.5 Mm dithiothreitol, and 0.05 mg/mL bovine serum albumin) containing 0.2 U Topo I (ThermoFisher, Waltham, MA, USA) and incubated at room temperature for 10 min. After that, 500 ng supercoiled pBR322 plasmid DNA (ThermoFisher, Waltham, MA, USA) was added and then incubated at 37 °C for another 30 min. Finally, the reactions were stopped with a stopping solution (5% sodium dodecyl sulfate, 0.0025% bromophenol blue, and 25% glycerol), and the mixtures were applied onto 0.8% agarose gel and subjected to electrophoresis for 1.5 h in Tris-Acetate-EDTA buffer. After being stained with GelRed (Biotium, Fremont, CA, USA), the gel was imagined with the imaging system (Biotop, Shanghai, China). […] The band density of the supercoiled DNA was quantified by the ImageJ software (version 1.53a, National Institutes of Health, Bethesda, MD, USA), and the inhibition activity is expressed as the percentage inhibition and calculated by formula: Inhibition % = [(A − B)/(C − B)] × 100%, where A is the band density of the tested samples, B is the band density of the negative control, and C is the band density of the blank control.
# [6] = SRB cytotoxicity assay, hepatocyte HL-7702; type: cell-based, human
# From the text: as §1, §2
# [7] = SRB cytotoxicity assay, panel of five human cancer cell lines and one human hepatocyte cell line; conditions: human
# Method: (§3) The cytotoxicities of 1–29 were tested by an SRB assay on a panel of five human cancer cell lines and one human hepatocyte cell line.
# (§4) The cytotoxic activities of the compounds against cancer cells were examined with a sulforhodamine B (SRB) colorimetric assay. Cells were seeded at a density of 5 × 10^3/well in 96-well plates for 24 h; various concentrations of the tested compounds, dissolved in DMSO and diluted with the complete medium, were added in the wells in triplicate and incubated for 48 h. After that, the cell viability was assessed with the SRB assay as we described before. The IC50 values were determined using the Reed and Muench method and are expressed as the mean ± SD of at least three independent measurements.
# [8] = test system: HepG2; experiment: SRB cytotoxicity assay, HepG2; type: cell-based; conditions: Homo sapiens, read-out: IC50 Cytotoxicity HepG2
# From the text: as §1, §2
# [9] = test system: A549, HCT116, MDA-MB-231, HepG2, DLD-1, HL-7702; experiment: SRB cytotoxicity assay, panel of five human cancer cell lines and one human hepatocyte cell line; conditions: tested concentration of 200 μM
# Method: as §3, §4
# [10] = test system: DLD-1 cells; experiment: DNA content analysis (cell cycle, flow cytometry) in DLD-1; type: cell-based, human; conditions: 24 h; for percentage of cell population in the G2/M phase / percentage of cells in the G1/S (combined) phase: DLD-1, 2 μM
# Method: Cells were seeded in 6-well plates and allowed to adhere for 24 h at 37 °C. After treatment with different concentrations of the samples for another 24 h, the cells were harvested and washed with PBS, and then, the DNA content analysis was conducted with a cell cycle staining kit (Multi sciences, Hangzhou, China), according to the manufacturer’s instructions. The fluorescence intensity of the cells was measured by flow cytometry (Beckman CytoFlex, Miami, FL, USA).
# [11] = DLD-1, SRB assay, 48 h, mean ± SD
# [12] = HCT-116, SRB assay, 48 h, mean ± SD
# [13] = A549, SRB assay, 48 h, mean ± SD
# [14] = MDA-MB-231, SRB assay, 48 h, mean ± SD
# [15] = HL-7702 hepatocyte cell line, SRB assay, 48 h, human hepatocyte, mean ± SD, read-out: IC50 Cytotoxicity HL-7702
# [16] = HepG2, SRB assay, 48 h, mean ± SD
# [17] = SRB assay, 48 h, human hepatocyte, mean ± SD, read-out: IC50 Cytotoxicity HL-7702
IC50 [5],inhibition at 400 µM [5],SMILES,"IC50 [1, 11]","IC50 [2, 12]","IC50 [3, 13]","IC50 [4, 14]","IC50 at 48 h [6, 15]","IC50 [8, 16]",cytotoxicity in all cell lines [9],"IC50 ([1]; DLD-1, 48 h)","IC50 ([2]; HCT-116, 48 h)","IC50 ([3]; A549, 48 h)","IC50 ([4]; MDA-MB-231, 48 h)","IC50 ([8]; HepG2, 48 h)",also measured
> 400 µM,24.6%,COc1ccc(/C=C/C(=O)c2ccc(OC)cc2O)cc1 [Compound 3],117 ± 11.6 µM,178 ± 6.11 µM,136 ± 25 µM,167 ± 5.63 µM,> 200 µM,> 200 µM,,,,,,,IC50 at 48 h [7]: ≥ 50.5 µM
> 400 µM,28.6%,O=c1c(O[C@@H]2O[C@H](CO)[C@H](O)[C@H](O)[C@H]2O)c(-c2ccc(O)cc2)oc2cc(O)cc(O)c12 [Compound 11],> 200 µM,> 200 µM,> 200 µM,> 200 µM,> 200 µM,> 200 µM,no cytotoxicity,,,,,,
224 ± 27.2 µM,,COc1cc(-c2oc3cc(O)c(OC)c(O)c3c(=O)c2OC)ccc1O [Compound 7],0.85 ± 0.02 µM,0.43 ± 0.03 µM,0.86 ± 0.03 µM,81.6 ± 7.43 µM,11.4 ± 4.42 µM,28.4 ± 13.1 µM,,,,,,,"percentage of cells in the G1/S phase ([10]; DLD-1, 0.5 μM): 81.16%; percentage of cells in the G1/S phase ([10]; DLD-1, 1 μM): 86.07%; percentage of cell population in the G2/M phase [10]: 75.75%; percentage of cells in the G1/S (combined) phase [10]: 24.26%"
> 400 µM,,C=C[C@H](O)[C@H](/C=C/C#CC#CC#CC)O[C@@H]1O[C@H](CO)[C@@H](O)[C@H](O)[C@H]1O [Compound 28],> 200 µM,> 200 µM,190 ± 12.1 µM,> 200 µM,> 200 µM,> 200 µM,,,,,,,
89.9 ± 28.1 µM,,"O=c1cc(-c2ccc(O)c(O)c2)oc2cc(O)cc(O)c12 [Compound 15, luteolin]",,,,,,,,69.2 ± 4.04 µM,31.7 ± 1.54 µM,93.9 ± 2.92 µM,94.91 ± 0.5 µM,175 ± 16.6 µM,IC50 at 48 h ([6]; human): > 200 µM

# Continued, compound first:
SMILES,IC50 [5],inhibition at 400 µM [5],"IC50 [1, 11]","IC50 [2, 12]","IC50 [3, 13]","IC50 [4, 14]","IC50 at 48 h [6, 15]","IC50 [8, 16]",cytotoxicity in all cell lines [9],"IC50 ([1]; DLD-1, 48 h)","IC50 ([2]; HCT-116, 48 h)","IC50 ([3]; A549, 48 h)","IC50 ([4]; MDA-MB-231, 48 h)","IC50 ([8]; HepG2, 48 h)",also measured
CC#CC#CC#CC=CC1OCCCC1OC(C)=O (stereo not drawn) [Compound 24],218 ± 50.8 µM,,,,,,,,no cytotoxicity,> 200 µM,> 200 µM,> 200 µM,> 200 µM,> 200 µM,"IC50 at 48 h [6, 17]: > 200 µM"
C=CCCCCC[C@H](O)[C@@H](O)[C@H](C#CC#CCCC)OC [Compound 29],> 400 µM,,,,,,,,no cytotoxicity,> 200 µM,> 200 µM,> 200 µM,> 200 µM,> 200 µM,"IC50 at 48 h [6, 17]: > 200 µM"
COc1ccc(-c2oc3cc(O[C@@H]4O[C@H](CO)[C@@H](O)[C@H](O)[C@H]4O)cc(O)c3c(=O)c2OC)cc1O [Compound 13],> 400 µM,38.6%,179 ± 5.94 µM,139 ± 11.3 µM,> 200 µM,> 200 µM,> 200 µM,> 200 µM,,,,,,,IC50 at 48 h [7]: ≥ 50.5 µM
COc1ccc([C@@H]2CC(=O)c3ccc(O)c(O[C@@H]4O[C@H](CO)[C@@H](O)[C@H](O)[C@H]4O)c3O2)cc1O [Compound 16],> 400 µM,10.9%,> 200 µM,> 200 µM,> 200 µM,> 200 µM,> 200 µM,> 200 µM,,,,,,,
COc1ccc(-c2oc3c(O)c(OC)c(O)cc3c(=O)c2OC)cc1O [Compound 6],239 ± 31.4 µM,,1.58 ± 0.07 µM,0.59 ± 0.1 µM,3.09 ± 0.28 µM,> 200 µM,23.9 ± 5.73 µM,34.6 ± 8.01 µM,,,,,,,"percentage of cells in the G1/S phase ([10]; DLD-1, 0.5 μM): 82.61%; percentage of cells in the G1/S phase ([10]; DLD-1, 1 μM): 88.65%; percentage of cell population in the G2/M phase [10]: 76.49%; percentage of cells in the G1/S (combined) phase [10]: 22.91%"

# — publication PMC11314063, “Inhibition of DNA Topoisomerase Ι by Flavonoids and Polyacetylenes Isolated from Bidens pilosa L” (Molecules, 2024)
